One block for each molecule: values may come before it.
Legend:
[1] = target: T1, CXCR2 (Homo sapiens, UniProt P25025); test: Phase 1 clinical trial: CXCR2 expression on peripheral blood neutrophils; assay type: in vivo
T1 construct: endogenous in cells; host or cells: peripheral blood neutrophils of trial subjects (in vivo dosing, ex vivo measurement)
T1 sequence (P25025 1-360): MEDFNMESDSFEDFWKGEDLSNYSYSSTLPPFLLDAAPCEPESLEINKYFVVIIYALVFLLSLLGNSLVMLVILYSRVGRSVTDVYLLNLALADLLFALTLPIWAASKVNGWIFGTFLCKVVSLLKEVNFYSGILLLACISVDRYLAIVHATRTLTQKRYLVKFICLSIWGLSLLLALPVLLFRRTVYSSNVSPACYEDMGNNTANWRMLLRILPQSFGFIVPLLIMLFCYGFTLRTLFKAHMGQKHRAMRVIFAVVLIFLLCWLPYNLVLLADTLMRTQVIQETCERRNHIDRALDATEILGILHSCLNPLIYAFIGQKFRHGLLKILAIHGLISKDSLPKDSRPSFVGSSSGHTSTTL
Experimental: Lines from bottom to top at 6 hrs post-administration represent 0.3 mg/kg, 0.15 mg/kg, 0.075 mg/kg, 0.03 mg/kg, 0.015 mg/kg, […], respectively.

[2] = test system: neutrophils; test: Phase 1 clinical trial: mobilization of neutrophils (automated hematology analyzer); details: monotherapy
Experimental: (§1) The dose of MGTA-145 was one of 0.0075 mg/kg, 0.015 mg/kg, 0.03 mg/kg, 0.075 mg/kg, 0.15 mg/kg, or 0.3 mg/kg. […] The dose of MGTA-145 was one of 0.015 mg/kg, 0.03 mg/kg, 0.075 mg/kg, or 0.15 mg/kg. […] The dose of MGTA-145 was one of 0.03 mg/kg or 0.075 mg/kg.
(§2) Mobilization of white blood cells (WBCs), neutrophils, lymphocytes, basophils, and eosinophils was quantified by automated hematology analyzer.

[3] = test system: white blood cells (WBCs); test: Phase 1 clinical trial: mobilization of white blood cells (automated hematology analyzer); details: monotherapy
Experimental: as §1, §2

[4] = test system: relative engraftment (CRU); test: Primary and secondary transplantation of mobilized mouse cells at limit dilution (CRU); assay type: in vivo, mice; details: compared to the other cohorts
From the text: Mice (CD45.1) were mobilized according to the scheme shown in FIG. 24 and mobilized cells transplanted into CD45.2 mice at limit dilution.

[5] = test system: hematopoietic stem and progenitor cell mobilization; details: described in U.S. Pat. No. 6,080,398; cited from earlier work
[6] = test system: CD34+ cells; test: Phase 1 clinical trial: mobilization of CD34+ cells into peripheral blood (multicolor flow cytometry); details: for Peak CD34+ (#/μL) Median (range) / Percent ≥20/μL: Part A
[7] = test system: CD34+CD90+CD45RA− cells; test: Phase 1 clinical trial: mobilization of CD34+CD90+CD45RA− cells into peripheral blood (flow cytometry); details: Part A monotherapy
[8] = test system: neutrophil activation markers (L-selectin, CD11b, CD18, CD66); test: Phase 1 clinical trial: neutrophil activation markers by flow cytometry; assay type: in vivo, human; details: monotherapy
From the text: G-CSF, the traditional therapy of choice for mobilization of neutrophils, enhances neutrophil activation, as measured by CD11b and CD18, but this has been identified to be problematic, for example, in patients with sickle cell disease where activated neutrophils adhere to the endothelium, thereby increasing the risk of severe and life-threatening complications such as vaso-occlusive crises. […] In contrast, the administration of MGTA-145 monotherapy (across all six doses) induces less than a 2-fold change relative to baseline for the neutrophil activation markers of CD11b and CD18.

[9] = test system: MMP-9; test: Phase 1 clinical trial: plasma MMP-9 and TIMP-1 by sandwich immunoassay; assay type: in vivo, human; details: monotherapy, all six doses
Experimental: FIGS. 6A and 6B show the plasma levels of MMP-9 and molar ratio of MMP-9:TIMP-1, respectively, over the course of 24 hours following MGTA-145 monotherapy. MMP-9 is an enzyme involved in the breakdown of extracellular matrix and indicative of neutrophil migration whereas TIMP-1 blocks MMP-9 mediated migration. Therefore, an increase in MMP-9 or an increase in MMP-9:TIMP-1 ratio is indicative of increased neutrophil mobilization. […] The plasma levels of MMP-9 then decreased towards initial concentrations over the course of 24 hours.

[10] = test system: neutrophil activation markers (L-selectin, CD11b, CD18, CD66); details: 5 days of G-CSF treatment, reported by Falanga et al., Blood 1999; cited from earlier work
[11] = test system: T cells, B cells and NK cells; details: cited from earlier work
[12] = G-CSF; Pulsiper et al. (2009) Blood; cited from earlier work
[13] = higher doses (0.075, 0.15, 0.3 mg/kg), 2 hours post administration
[14] = lower doses (0.0075, 0.015, 0.03 mg/kg), between 1 and 2 hours post administration
[15] = MGTA-145 on Day 1, 0.03 mg/kg (n=4)
[16] = MGTA-145 on Day 1, 0.3 mg/kg (n=4)
[17] = 78 healthy donors mobilized with G-CSF (Chaidos et al, Blood. 2012)
[18] = Chen et al., 2019, G-CSF N = 112+, 1 LP
[19] = Devine et al, 2008, median yield of 1 LP, plerixafor N = 24, G-CSF N = 8

CXCR2 expression recovery prior to the second dose ([1]; 0.07 mg/kg, staggered dosing, two consecutive days): ~80 % of baseline | CXCR2 on peripheral blood neutrophils ([1]; monotherapy, followed by recovery over 24 hours): rapid downregulation
Molecule: MGTA-145: CXCR2 agonist; truncated Gro-β with deletion of the first four N-terminal amino acids (SEQ ID NO: 2)
Initial plateau of neutrophil mobilization [2, 13]: 5-8 ×10^3 cells/μL | Peak mobilization of neutrophils [2, 14]: 13-15 ×10^3 cells/μL | Initial plateau of WBC mobilization [3, 13]: 6-10 ×10^3 cells/μL | Peak mobilization of WBCs [3, 14]: 15-17 ×10^3 cells/μL | Engraftment rates, secondary transplantation [4]: vastly improved engraftment rates | Potency to induce hematopoietic stem and progenitor cell mobilization relative to Gro-β [5]: superior to that of Gro-β by multiple orders of magnitude | Fold increase of CD34+ cells ([6]; Part A monotherapy, 0.03 mg/kg): 7 fold | Peak concentration of CD34+ cells ([6]; Part A monotherapy, 0.03 mg/kg): ~10 cells/μL | Time of peak CD34+ mobilization post administration ([6]; Part A monotherapy, across the six doses (0.0075-0.3 mg/kg)): about 30 minutes | Fold increase of CD34+ cells ([6]; Part A monotherapy, the other doses): 2-3 fold | Peak concentration of CD34+ cells ([6]; Part A monotherapy, the other doses (0.0075, 0.015, 0.075, 0.15, 0.3 mg/kg)): ~5 cells/μL | Peak CD34+ (#/μL) Median (range) [6, 15]: 12 (2-19) #/μL | Percent ≥20/μL [6, 15]: 0 (0/4) % | Peak CD34+ (#/μL) Median (range) [6, 16]: 3 (3-13) #/μL | Percent ≥20/μL [6, 16]: 0 (0/4) % | Time of peak CD34+CD90+CD45RA− mobilization post administration [7]: 30 min | Fold increase of CD34+CD90+CD45RA− cells ([7]; 0.03 mg/kg): ~8.3 fold | Peak concentration of CD34+CD90+CD45RA− cells ([7]; 0.03 mg/kg): ~3 cells/μL | Fold increase of CD34+CD90+CD45RA− cells ([7]; the other doses): 2-3.5 fold | Peak concentration of CD34+CD90+CD45RA− cells ([7]; the other doses): 1-1.6 cells/μL | Fold change relative to baseline, CD66 ([8]; all doses except the highest (0.3 mg/kg)): < 2 fold | Fold change relative to baseline, CD11b and CD18 ([8]; all six doses): < 2 fold | Fold change relative to baseline, L-selectin ([8]; all six doses): < 2 fold | Molar ratio of MMP-9:TIMP-1 [9]: rapid increase 30 minutes post-administration | Plasma levels of MMP-9 [9]: increased sharply within 30 minutes post-administration

B1: G-CSF: Filgrastim (G-CSF), most common clinical hematopoietic stem cell mobilization protocol, five days (protein, UniProt P09919 31-207, looked up)
Granulocyte …: TPLGPASSLPQSFLLKCLEQVRKIQGDGAALQEKLVSECATYKLCHPEELVLLGHSLGIPWAPLSSCPSQALQLAGCLSQLHSGLFLYQGLLQALEGISPELGPTLDTLQLDVADFATTIWQQMEELGMAPALQPTQGAMPAFASAFQRRAGGVLVASHLQSFLEVSYRVLRHLAQP
modifications: filgrastim
Fold increase in neutrophil activation markers [10]: ~2.7 fold | TNC/kg donor weight, Median (range) ([11]; 40 healthy donors mobilized with G-CSF (Singhal et al, BMT. 2000)): 7.2 (3.2-14.0) ×10^8 cells | Frequency of CD3+ T cells in graft, Median (range) [11, 17]: 45.3 (21.8-75.4) % of CD45+ | Frequency of CD4+ T cells in graft, Median (range) [11, 17]: 29.8 (12.6-56.5) % of CD45+ | Frequency of CD8+ T cells in graft, Median (range) [11, 17]: 11.8 (4.1-29.2) % of CD45+ | Frequency of CD19+ B cells in graft, Median (range) [11, 17]: 10.5 (0.9-34.8) % of CD45+ | Frequency of CD56+ NK cells in graft, Median (range) [11, 17]: 3.2 (0.5-18.4) % of CD45+ | Frequency of Tregs in graft, Median (range) [11, 17]: 3.5 (0.9-8.2) % of CD4+ T cells | Frequency of iNKT cells in graft, Median (range) [11, 17]: 0.04 (0.00-1.07) % of CD3+ | CD3+ in graft, Median [11, 18]: 2.5e+08 kg⁻¹ | CD4+ in graft, Median [11, 18]: 1.5e+08 kg⁻¹ | CD8+ in graft, Median [11, 18]: 7e+07 kg⁻¹ | CD19+ in graft, Median [11, 18]: 5e+07 kg⁻¹ | CD34+ in graft, Median [11, 18]: 4.2e+06 kg⁻¹ | CD56+ in graft, Median [11, 18]: 1e+07 kg⁻¹ | CD3+ in graft, Median (range) [11, 19]: 1.3 (1.2-6.8) ×10^8/kg | CD4+ in graft, Median (range) [11, 19]: 1.1 (0.7-3.2) ×10^8/kg | CD8+ in graft, Median (range) [11, 19]: 0.4 (0.3-3.4) ×10^8/kg | CD34+ in graft, Median (range) [11, 19]: 4.2 (2.5-18.7) ×10^6/kg | CD56+ in graft, Median (range) [11, 19]: 0.2 (0.1-0.5) ×10^8/kg | Tolerability [12]: Majority with bone pain,
